The values below are quoted from earlier work in patent US20060177524A1, “Ocular irrigating solution” (University of Bristol, priority 1998, published 2006).

The conditions of data set [1]: at 25° C.
Data set [2] deals with endothelial Na^+K^+ ATPase. Conditions: Geroski et al 1982-83, human and rabbit corneas.

As to `O=S(=O)(O)CCCN1CCN(CCO)CC1` [EPPS, N-[2-hydroxyethyl]-piperazine-N′-[3-propanesulfonic acid]], the pKa (in general, the negative logarithm of the acid dissociation constant) in data set [1] is 8.0.
Regarding `O=S(=O)(O)CCN1CCN(CCO)CC1` [HEPES, N-2-[hydroxyethyl]piperazine-N′-[2-ethanesulfonic acid]], in data set [2], the “Toxicity to endothelial Na^+K^+ ATPase” value is listed as “toxic”.
